Patent publication US12371662B2, “Cell-based treatment and drug discovery in Hirschsprung's disease enabled by pluripotent stem cell-derived human enteric neural crest lineages” (MEMORIAL SLOAN-KETTERING CANCER CENTER, priority 2015, dated 2025)
Where a SMILES comes first, the peptide text is derived from it. [ ]: non-standard residue; d: D form. The star is where a group is joined. Sta = CC(C)C[C@H](N)[C@@H](O)CC(=O)O; Isovaleryl = CC(C)CC(=O)*

What was measured:
rodent GSK3β homologs = details: cited from earlier work
[1] = test system: CD49D purified EDNRB−/− hESC-derived ENC; assay: Scratch (migration) assay on EDNRB−/− ENC precursors; assay type: cell-based, human
Experimental: The ENC cells were plated on PO/LM/FN coated (prepared as described previously^38) 96 well or 48 well culture plates (30,000/cm^2). 24 hours later the culture lawn was scratched manually using a pipette tip. The cells were given an additional 24-48 hours to migrate into the scratch area and fixed for imaging and quantification. The quantification was based on the percentage of the nuclei that are located in the scratch area after the migration period. The scratch area was defined using a reference well that was fixed immediately after scratching. Migration of cells were quantified using the open source data analysis software KNIME^41 (http://knime.org) with the “Quantification in ROI” plug-in as described in detail elsewhere^42.
The chemical compound screening was performed using the Prestwick Chemical Library®. The ENC cells were plated in 96 well plates (30,000/cm^2) and scratched manually 24 hours before addition of the compounds. The cells were treated with two concentrations of the compounds (10 μM and 1 μM). The plates were fixed 24 hours later for total plate imaging. The compounds were scores based on their ability to promote filling of the scratch in 24 hours. […] The hits were further validated to ensure reproducibility. The cells were treated with various concentrations of the selected hit compound (Pepstatin A) for dose response analysis. The optimal dose (10 μM-based on optimal response and viability) was used for follow-up experiments. For the pre-treatment experiments, cells were CD49D purified at day 11 and treated with Pepstatin A from day 12 through day 15 followed by transplantation into the colon wall of NSG mice.
To inhibit BACE2, the ENC precursors were treated with 1 μM β-Secretase Inhibitor IV (CAS 797035-11-1—Calbiochem). […] The Knockdown was confirmed by qRT-PCR measurement of BACE2 mRNA levels in cells transfected with the BACE2 siRNAs vs. the control siRNA pool (ON-TARGETplus Non-targeting Pool, Dharmacon, D-001810-10-05). The transfected cells were scratched 24 hours after plating and fixed 48 hours later for migration quantification.

[2] = test system: EDNRB−/− hESC-derived ENC precursors; assay: Colon migration after transplantation of pre-treated EDNRB−/− ENC precursors into NSG mice; assay type: in vivo, human cells in NSG mice; details: EDNRB-null precursors pre-treated for 72 hours before transplantation, 2 weeks
Experimental: All mouse procedures were performed following NIH guidelines, and were approved by the local Institutional Animal Care and Use Committee (IACUC), the Institutional Biosafety Committee (IBC) as well as the Embryonic Stem Cell Research Committee (ESCRO). 3-6 week old male NSG (NOD.Cg-Prkdc^scid Il2rg^tm1Wjl/SzJ) mice or 2-3 weeks old EDNRB^s-l/s-l (SSL/LeJ) mice^39 (n=12, 6 male, 6 female) were used for these studies. […] Animals were randomly selected for the various treatment paradigms (NSG and EDNRB^s-l/s-l) but assuring for equal distribution of male/female ratio in each group (EDNRB^s-l/s-l). Animals were anesthetized with isoflurane (1%) throughout the procedure, a small abdominal incision was made, abdominal wall musculature lifted and the cecum is exposed and exteriorized. Warm saline was used to keep the cecum moist. 20 μl of cell suspension (2-4 million RFP+CD49D purified hESC-derived ENC precursors) in 70% matrigel (BD Biosciences, 354234) in PBS or 20 μl of 70% matrigel in PBS only (control grafted animals) were slowly injected into the cecum (targeting the muscle layer) using a 27-gauge needle. […]
The harvested colon samples were fixed in 4% PFA at 4° C. overnight before imaging. Imaging was performed using Maestro fluorescence imaging system (Biotechniques). […]

For Cc1c[nH]c(-c2cnc(NCCNc3ccc(C#N)cn3)nc2-c2ccc(Cl)cc2Cl)n1 [CHIR99021, 6-(2-(4-(2,4-dichlorophenyl)-5-(4-methyl-1H-imidazol-2-yl)pyrimidin-2-ylamino)ethylamino)nicotinonitrile], the “IC50 values against rodent GSK3β homologs” value (rodent GSK3β homologs) is given as “nanomolar”.

For CC(C)CC(=O)N[C@H](C(=O)N[C@H](C(=O)N[C@@H](CC(C)C)[C@@H](O)CC(=O)N[C@@H](C)C(=O)N[C@@H](CC(C)C)[C@@H](O)CC(=O)O)C(C)C)C(C)C [Pepstatin A] (Isovaleryl-VV[Sta]A[Sta]-OH), the “rescue of the migration defect in scratch assay” value ([1]; EDNRB−/− hESC derived NC precursors, range of concentrations, treatment started 24 hrs before scratching) was “dose-dependent, near complete rescue of the migration defect”, the “optimal dose (based on optimal response and viability)” value ([1]; dose response analysis, EDNRB−/− ENC) was 10 µM and the “rescue of in vivo migration behavior in adult colon” value [2] was “significant rescue of the in vivo migration behavior”.

With BACE inhibitor IV the “rescue of the migration defect in scratch assay” value ([1]; EDNRB−/− hESC-derived ENC, 1 μM) was “rescued the migration defect”.
